Literature values as cited in patent publication US9193713B2, “Compounds as cannabinoid receptor ligands” (priority 2007, dated 2015).

How the values were obtained:
mice = conditions: model for post-menopausal osteoporosis
microglial = conditions: in vitro; effects blocked by SR144528
rat = rat formalin model of persistent pain
[1] = system: apolipoprotein E knockout mice; conditions: low doses; effects inhibited by SR144528
animal models = conditions: acute thermal, persistent, inflammatory and neuropathic pain models
rodent = conditions: neuropathic, incisional, chronic and acute inflammatory pain

SR144528
effect on osteoclast activity (osteoclast): inhibit osteoclast activity | effect on ovariectomy-induced bone loss (mice): reverse ovariectomy-induced bone loss

CCCC(C)(C)c1ccc2c(c1)OC(C)(C)[C@@H]1CC=C(C)C[C@@H]21 [JWH-133]
effect on β-amyloid-induced microglial activation and neurotoxicity (microglial): abrogated β-amyloid-induced microglial activation and neurotoxicity

CCCCCCC(C)(C)c1cc(OC)c([C@@H]2C=C(CO)[C@@H]3C[C@H]2C3(C)C)c(OC)c1 [HU-308]
antinociceptive response (rat): elicits an antinociceptive response

(−)-Δ^9-Tetrahydrocannabinol [THC]
effect on progression of atherosclerotic lesions [1]: slowed the progression of atherosclerotic lesions

CN1CCCCC1Cn1cc(C(=O)c2cc([N+](=O)[O-])ccc2I)c2ccccc21 (stereo not shown) [AM-1241]
analgesic efficacy (animal models): robust analgesic efficacy

COc1ccc2c(c1)c(CCN1CCOCC1)c(C)n2C(=O)c1cccc(Cl)c1Cl [GW405833]
efficacy in pain models (rodent): efficacious
